The compounds below were run against MMP-13CD (catalytic domain of collagenase-3) (Homo sapiens, UniProt P45452) (assay: Thiopeptolide substrate hydrolysis inhibition assay, MMP-13CD). Settings: Table I; thiopeptolide substrate, HEPES pH 7.0, 22° C.; read-out: MMP-13CD IC50.
Type: biochemical
Source text: Thiopeptolide substrates show virtually no decomposition or hydrolysis at or below neutral pH in the absence of a matrix metalloproteinase enzyme.

Q: For “3-(4-Carboxy-benzyl)-1-methyl-2,4-dioxo-1,2,3,4-tetrahydro-thieno[2,3-d]pyrimidine-6-carboxylic acid 2-ethoxy-benzyl ester [Example 319]”, which IC50 is on record?
A: 8000 nM

Q: For “3-(4-Methoxycarboxyl-butyl)-1-methyl-2,4-dioxo-1,2,3,4-tetrahydro-thieno[2,3-d]pyrimidine-6-carboxylic acid benzyl ester [Example 141]”, which IC50 is on record?
A: 150 nM

Q: With “3-Benzyl-1-methyl-2,4-dioxo-1,2,3,4-tetrahydro-thieno[2,3-d]pyrimidine-6-carboxylic acid 2,2,2-trifluoro-1-trifluoromethyl-ethyl ester [Example 168]” as the compound, how does the IC50 read?
A: 25000 nM

Q: How did the IC50 turn out when “3-Benzyl-1-methyl-2,4-dioxo-1,2,3,4-tetrahydro-thieno[2,3-d]pyrimidine-6-carboxylic acid ((S)-2,2-dimethyl-4-phenyl-1,3-dioxinan-5-yl)-amide [Example 341]” was run?
A: 14000 nM

Q: How did the IC50 turn out when `CC(=O)c1ccc(-n2c(=O)[nH]c3sc(C(=O)OCc4ccccc4)c(C)c3c2=O)cc1` [Example 6, 3-(4-Acetyl-phenyl)-5-methyl-2,4 dioxo-1,2,3,4-tetrahydro-thieno[2,3-d]-pyrimidine-6-carboxylic acid benzyl ester] was run?
A: > 100000 nM

Q: With `Cc1c(C(=O)OCc2ccccc2)sc2[nH]c(=O)n(-c3ccc([N+](=O)[O-])cc3)c(=O)c12` [Example 8, 5-Methyl-3-(4-nitro-phenyl)-2,4-dioxo-1,2,3,4-tetrahydro-thieno[2,3-d]-6-carboxylic acid benzyl ester] as the compound, how does the IC50 read?
A: 15000 nM

Q: How did the IC50 turn out when `O=C(OCc1ccc2c(c1)OCO2)c1cc2c(=O)n(Cc3ccccc3)c(=O)[nH]c2s1` [Example 10, 3-Benzyl-2,4-dioxo-1,2,3,4-tetrahydro-thieno[2,3-d]pyrimidine-6-carboxylic acid 1,3-benzodioxol-5-ylmethyl ester] was run?
A: 68 nM

Q: Which IC50 does the source give for `Cn1c(=O)n(Cc2ccccc2)c(=O)c2cc(C(=O)NCc3ccccc3)sc21` [Example 11, 3-Benzyl-1-methyl-2,4-dioxo-1,2,3,4-tetrahydro-thieno[2,3-d]pyrimidine-6-carboxylic acid benzyl amide] here?
A: 470 nM

Q: With `O=C(OCCc1ccccc1)c1cc2c(=O)n(Cc3ccccc3)c(=O)[nH]c2s1` [Example 12, 3-Benzyl-2,4-dioxo-1,2,3,4-tetrahydro-thieno[2,3-d]pyrimidine-6-carboxylic acid 2-phenylethyl ester] as the compound, how does the IC50 read?
A: > 100000 nM

Q: How did the IC50 turn out when `O=C(OCc1ccoc1)c1cc2c(=O)n(Cc3ccccc3)c(=O)[nH]c2s1` [Example 13, 3-Benzyl-2,4-dioxo-1,2,3,4-tetrahydro-thieno[2,3-d]pyrimidine-6-carboxylic acid furan-3-ylmethyl ester] was run?
A: 18000 nM

Q: With `Cn1c(=O)n(Cc2ccccc2)c(=O)c2cc(C(=O)OCc3cc4ccccc4o3)sc21` [Example 48, 3-Benzyl-1-methyl-2,4-dioxo-1,2,3,4-tetrahydro-thieno[2,3-d]pyrimidine-6-carboxylic acid benzofuran-2-ylmethyl ester] as the compound, how does the IC50 read?
A: 1450 nM

Q: How did the IC50 turn out when `COc1ccc(COC(=O)c2cc3c(=O)n(Cc4ccccc4)c(=O)[nH]c3s2)cc1` [Example 50, 3-Benzyl-2,4-dioxo-1,2,3,4-tetrahydro-thieno[2,3-d]pyrimidine-6-carboxylic acid 4-methoxy-benzyl ester] was run?
A: 87.5 nM

Q: For `Cn1c(=O)n(Cc2ccc(C(=O)O)cc2)c(=O)c2cc(C(=O)NCc3ccncc3)sc21` [Example 51, 4-{1-Methyl-2,4-dioxo-6-[(pyridin-4-ylmethyl)-carbamoyl]-1,4-dihydro-2H-thieno[2,3-d]pyrimidin-3-ylmethyl}-benzoic acid; compound with trifluoro-acetic acid], which IC50 is on record?
A: 20.5 nM

Q: How did the IC50 turn out when `COc1ccc(CNC(=O)c2cc3c(=O)n(Cc4ccc(C(=O)O)cc4)c(=O)n(C)c3s2)cc1` [Example 52, 4-[6-(4-Methoxy-benzylcarbamoyl)-1-methyl-2,4-dioxo-1,4-dihydro-2H-thieno[2,3-d]pyrimidin-3-ylmethyl]-benzoic acid] was run?
A: 3.95 nM

Q: For `COc1ccc(CNC(=O)c2cc3c(=O)n(Cc4ccc(C(=O)OC(C)(C)C)cc4)c(=O)n(C)c3s2)cc1OC` [Example 53, 4-[6-(3,4-Dimethoxy-benzylcarbamoyl)-1-methyl-2,4-dioxo-1,4-dihydro-2H-thieno[2,3-d]pyrimidin-3-ylmethyl]-benzoic acid tert-butyl ester], which IC50 is on record?
A: 30000 nM

Q: Which IC50 does the source give for `COc1ccc(CNC(=O)c2cc3c(=O)n(Cc4ccc(C(=O)O)cc4)c(=O)n(C)c3s2)cc1OC` [Example 54, 4-[6-(3,4-Dimethoxy-benzylcarbamoyl)-1-methyl-2,4-dioxo-1,4-dihydro-2H-thieno[2,3-d]pyrimidin-3-ylmethyl]-benzoic acid] here?
A: 4500 nM

Q: How did the IC50 turn out when `Cn1c(=O)n(Cc2ccc(C(=O)O)cc2)c(=O)c2cc(C(=O)NCc3ccc(Br)cc3)sc21` [Example 55, 4-[6-(4-Bromo-benzylcarbamoyl)-1-methyl-2,4-dioxo-1,4-dihydro-2H-thieno[2,3-d]pyrimidin-3-ylmethyl]-benzoic acid] was run?
A: 11 nM

Q: How did the IC50 turn out when `Cn1c(=O)n(Cc2ccc(C(=O)OC(C)(C)C)cc2)c(=O)c2cc(C(=O)NCc3ccc(Br)cc3)sc21` [Example 56, 4-[6-(4-Bromo-benzylcarbamoyl)-1-methyl-2,4-dioxo-1,4-dihydro-2H-thieno[2,3-d]pyrimidin-3-ylmethyl]-benzoic acid tert-butyl ester] was run?
A: 30000 nM

Q: For `Cn1c(=O)n(Cc2ccc(C(=O)O)cc2)c(=O)c2cc(C(=O)NCc3cc(C(F)(F)F)cc(C(F)(F)F)c3)sc21` [Example 57, 4-[6-(3,5-Bis-trifluoromethyl-benzylcarbamoyl)-1-methyl-2,4-dioxo-1,4-dihydro-2H-thieno[2,3-d]pyrimidin-3-ylmethyl]-benzoic acid], which IC50 is on record?
A: 5600 nM

Q: How did the IC50 turn out when `Cn1c(=O)n(Cc2ccc(C(=O)O)cc2)c(=O)c2cc(C(=O)NCc3ccc(Cl)cc3)sc21` [Example 58, 4-[6-(4-Chloro-benzylcarbamoyl)-1-methyl-2,4-dioxo-1,4-dihydro-2H-thieno[2,3-d]pyrimidin-3-ylmethyl]-benzoic acid] was run?
A: 11.5 nM

Q: For `Cn1c(=O)n(Cc2ccc(C(=O)O)cc2)c(=O)c2cc(C(=O)NCc3ccc(S(N)(=O)=O)cc3)sc21` [Example 59, 4-[1-Methyl-2,4-dioxo-6-(4-sulfamoyl-benzylcarbamoyl)-1,4-dihydro-2H-thieno[2,3-d]pyrimidin-3-ylmethyl]-benzoic acid], which IC50 is on record?
A: 2000 nM

Q: Which IC50 does the source give for `COc1ccc(CNC(=O)c2cc3c(=O)n(Cc4ccc(F)cc4)c(=O)n(C)c3s2)cc1` [Example 60, 3-(4-Fluoro-benzyl)-1-methyl-2,4-dioxo-1,2,3,4-tetrahydro-thieno[2,3-d]pyrimidine-6-carboxylic acid 4-methoxy-benzylamide] here?
A: 160 nM

Q: `COc1cccc(CNC(=O)c2cc3c(=O)n(Cc4ccc(I)cc4)c(=O)n(C)c3s2)c1` [Example 61, 3-(4-Iodo-benzyl)-1-methyl-2,4-dioxo-1,2,3,4-tetrahydro-thieno[2,3-d]pyrimidine-6-carboxylic acid 3-methoxy-benzylamide] was tested. Which IC50 did it give?
A: 45 nM

Q: How did the IC50 turn out when `COc1ccc(CNC(=O)c2cc3c(=O)n(Cc4ccc(S(=O)(=O)N(C)C)cc4)c(=O)n(C)c3s2)cc1` [Example 62, 3-(4-Dimethylsulfamoyl-benzyl)-1-methyl-2,4-dioxo-1,2,3,4-tetrahydro-thieno[2,3-d]pyrimidine-6-carboxylic acid 4-methoxy-benzylamide] was run?
A: 53.5 nM

Q: Which IC50 does the source give for `COc1ccc(CNC(=O)c2cc3c(=O)n(Cc4ccc(C#N)cc4)c(=O)n(C)c3s2)cc1` [Example 64, 3-(4-Cyano-benzyl)-1-methyl-2,4-dioxo-1,2,3,4-tetrahydro-thieno[2,3-d]pyrimidine-6-carboxylic acid 4-methoxy-benzylamide] here?
A: 62 nM

Q: For `COc1cccc(CNC(=O)c2cc3c(=O)n(Cc4ccc(NC(C)=O)cc4)c(=O)n(C)c3s2)c1` [Example 65, 3-(4-Acetylamino-benzyl)-1-methyl-2,4-dioxo-1,2,3,4-tetrahydro-thieno[2,3-d]pyrimidine-6-carboxylic acid 3-methoxy-benzylamide], which IC50 is on record?
A: 53.5 nM

Q: For `CCOC(=O)c1ccc(Cn2c(=O)c3cc(C(=O)NCc4cccc(OC)c4)sc3n(C)c2=O)o1` [Example 65a, 5-[6-(3-Methoxy-benzylcarbamoyl)-1-methyl-2,4-dioxo-1,4-dihydro-2H-thieno[2,3-d]pyrimidin-3-ylmethyl]-furan-2-carboxylic acid ethyl ester], which IC50 is on record?
A: 1050 nM

Q: With `COc1cccc(COC(=O)c2cc3c(=O)n(Cc4ccc(C#N)cc4)c(=O)[nH]c3s2)c1` [Example 66, 3-(4-Cyano-benzyl)-2,4-dioxo-1,2,3,4-tetrahydro-thieno[2,3-d]pyrimidine-6-carboxylic acid 3-methoxy-benzyl ester] as the compound, how does the IC50 read?
A: 27.5 nM

Q: Which IC50 does the source give for `COc1cccc(COC(=O)c2cc3c(=O)n(Cc4ccc(-c5nn[nH]n5)cc4)c(=O)[nH]c3s2)c1` [Example 67, 2,4-Dioxo-3-[4-(2H-tetrazol-4-yl)-benzyl]-1,2,3,4-tetrahydro-thieno[2,3-d]pyrimidine-6-carboxylic acid 3-methoxy-benzyl ester] here?
A: 1.68 nM

Q: How did the IC50 turn out when `COc1cccc(CNC(=O)c2cc3c(=O)n(Cc4ccc(C(=O)OCCN(C)C)cc4)c(=O)n(C)c3s2)c1` [Example 68, 4-[6-(3-Methoxy-benzylcarbamoyl)-1-methyl-2,4-dioxo-1,4-dihydro-2H-thieno[2,3-d]pyrimidin-3-ylmethyl]-benzoic acid 2-dimethylamino-ethyl ester] was run?
A: 63.5 nM

Q: Which IC50 does the source give for `COc1cccc(CNC(=O)c2cc3c(=O)n(CC4CCCCC4)c(=O)n(C)c3s2)c1` [Example 69, 3-Cylcohexylmethyl-1-methyl-2,4-dioxo-1,2,3,4-tetrahydro-thieno[2,3-d]pyrimidine-6-carboxylic acid-3methoxy-benzylamide] here?
A: 57 nM

Same assay, conditions: Table II; micromolar concentration; HEPES pH 7.0; read-out: IC50 MMP-13CD

Q: With `C=Cc1ccc(Cn2c(=O)c3cc(C(=O)OCc4ccccc4)sc3n(C)c2=O)cc1` [Example 20, 1-Methyl-2,4-dioxo-3-(4-vinyl-benzyl)-1,2,3,4-tetrahydro-thieno[2,3-d]pyrimidine-6-carboxylic acid benzyl ester] as the compound, how does the IC50 read?
A: 6.5 nM

From US20030004172A1, “Fused pyrimidinone matrix metalloproteinase inhibitors” (priority 2001, published 2003)
